Results published in patent publication US7718640B2, “Methods and pharmaceutical compositions for reliable achievement of acceptable serum testosterone levels” (Bayer-Schering Pharma AG, priority 2003, dated 2010).

Key:
[1] = Long-term efficacy and safety study of intramuscular TU 1000 mg in hypogonadal men (Example 2); assay type: in vivo; conditions: 4 TU doses of 1000 mg i.m. per year (12-week intervals), 4 ml castor oil:benzyl benzoate 1:1.7
Experimental: The therapeutic efficacy and safety of a formulation containing testosterone undecanoate 1000 mg in a vehicle of 4 ml of a mixture of castor oil and benzyl benzoate in a ratio of 1:1.7 by volume has been investigated in hypogonadal men. The formulation (4 mL, 1000 mg of testosterone undecanoate) was injected intramuscularly to the hypogonadal men according to the following scheme: • initial phase comprising 4 injections of the formulation with intervals of 6 weeks between the injections. • maintenance phase comprising injecting the formulation in intervals of 10 or 12 weeks between injections.
The present study relates to a one-arm study examining the efficacy and safety of long-term intramuscular injection of testosterone undecanoate for the treatment of symptoms of hypogonadism in men. The patients received 4 testosterone undecanoate injections of 1000 mg the first three times of injections with an interval of 6 weeks, the 4th injection and subsequent injections with 12-week intervals.

[2] = Comparison of initial phases with 6 versus 10 weeks between injections; serum testosterone (total) before each additional injection (Example 4); assay type: in vivo, men; conditions: for Mean testosterone level (total) in serum after 1st injection / Mean testosterone level (total) in serum after 2nd injection: 6 men
Experimental: The pharmacokinetic profile of a formulation containing testosterone undecanoate (TU)1000 mg in a vehicle of 4 ml of a mixture of castor oil and benzyl benzoate in a ratio of 1:1.7 by volume was tested using two different regimens in hypogonadal men.
In regimen A, an initial phase of two first intramuscularly injections of 1000 mg TU with mean of 9.2-weeks (64.4 days) interval between the two injections, followed by a maintenance phase of subsequent intramuscularly injections of 1000 mg TU separated by an interval of a mean of 10.2 weeks ([…]) after second injection.
In regimen B, an initial phase of two first intramuscularly injections of 1000 mg TU with mean of 6.1-weeks (42.5 days) interval between the first two injections, followed by a maintenance phase of subsequent intramuscularly injections of 1000 mg TU separated by an interval of mean of 10.1 weeks (70.5 days) after second injections.
The concentration of testosterone (total) was determined in serum before each additional injection of TU.

[3] = Pharmacokinetic profile: total serum testosterone after intramuscular TU in hypogonadal men (Example 3, FIG. 1); assay type: in vivo
Experimental: See Example 3 for the injection scheme. […] The filled lines show the continued injection of 1000-mg TU with an interval of 12 weeks between injections.
The pharmacokinetic profile of a formulation containing testosterone undecanoate (TU) 1000 mg in a vehicle of 4 ml of a mixture of castor oil and benzyl benzoate in a ratio of 1:1.7 by volume was tested in hypogonadal men (having testosterone levels in serum of less than 10 nmol/l). An initial phase of two first intramuscularly injections of 1000 mg TU with 6-weeks interval between the two injections, followed by a maintenance phase of subsequent 3 intramuscularly injections of 1000 mg TU separated by an interval of 10 weeks between each of the injections. Then 1000 mg of testosterone undecanoate (TU) was intramuscularly injected every 12 weeks. 5 treatment periods were provided with an interval of 12 weeks between each injection.

## 17β-hydroxyandrost-4-en-3-one undecanoate [TU]
[1]
  restoration of physiological serum T levels: sufficient to restore physiological serum T levels in all 36 patients over most of the measurement times
[2]; Regime A, mean 9.2 weeks after 1st injection of 1000 mg TU i.m.
  Mean testosterone level (total) in serum after 1st injection: 7.0 nmol/L
[2]; Regime A, mean 10.8 weeks after 2nd injection of 1000 mg TU i.m.
  Mean testosterone level (total) in serum after 2nd injection: 8.8 nmol/L
[2]; Regime B, mean 6.1 weeks after 1st injection of 1000 mg TU i.m.
  Mean testosterone level (total) in serum after 1st injection: 12.2 nmol/L
[2]; Regime B, mean 10.1 weeks after 2nd injection of 1000 mg TU i.m.
  Mean testosterone level (total) in serum after 2nd injection: 12.5 nmol/L
[2]; Regimen A: long-term intervals in both initial and maintenance phase
  sufficiency of testosterone levels over the entire period up to the following injection: do not result in the sufficient levels of testosterone above 10 nmol
[2]; Regimen B: interval in the initial phase decreased to 6 weeks
  testosterone levels over the period between injections: above 10 nmol/l
[3]; 12 weeks after injection of 1000 mg TU i.m., maintenance phase
  minimum testosterone levels (total levels) after 12 weeks: ≥ 10 nmol
[3]; 14 weeks, upon extrapolating the serum levels of testosterone, lowest acceptable concentration about 10 nmol
  minimum testosterone levels for a treatment period of 14 weeks: The same was shown to apply
[3]; first injection interval 6 weeks, subsequent injections at 10 or 12 week intervals
  serum testosterone levels throughout the entire period between injections: 10 to 35 nmol/L
[3]; hypogonadal men, 1000 mg TU i.m. in 4 ml castor oil:benzyl benzoate 1:1.7, 2 injections 6 weeks apart, then 3 at 10-week, then 12-week intervals
  maximal and minimal testosterone levels (total levels) in serum: within the physiological acceptable range
[3]; same scheme as Example 3, 1000 mg TU i.m.
  accumulation of testosterone over time: no accumulation of testosterone is seen over time
